From publication PMC11597089, “Kratom Alkaloids: A Blood–Brain Barrier Specific Membrane Permeability Assay-Guided Isolation and Cyclodextrin Complexation Study” (Molecules, 2024)

Key:
[1] = ACE complex stability, PIP-β-CD; format: physicochemical; conditions: 6-monodeoxy-6-piperidine-β-CD, positively charged, 30 mM phosphate buffer pH 7.4, 25 °C
Protocol: (§1) To investigate the CD complexation behavior of the four kratom alkaloids, we aimed to develop an ACE method for a systematic comparative study. […] To ensure sufficient buffer capacity and to avoid excessive current and Joule heat generation, the buffer concentration was set to 30 mM, and the applied voltage was 15 kV.
(§2) The ACE experiments were performed by using Agilent 7100 and HP^3DCE instruments (Agilent Technologies, Waldbronn, Germany). Untreated fused silica capillaries (total length of 48.5 cm, effective length of 40 cm, inner diameter of 50 μm) were purchased from Agilent Technologies. The new capillaries were conditioned with a 1 M NaOH wash for 1 h, followed by a 30 min wash each with 0.1 M NaOH and purified water. Prior to all runs, the capillary was preconditioned by rinsing with background electrolyte for 3 min. During the measurements, 30 mM phosphate buffer at pH 7.4 (30 mM Na2HPO4-NaOH) was used. The background electrolyte contained CDs at various concentrations. Stock solutions of the studied kratom alkaloids (mitragynine, paynantheine, speciogynine, speciociliatine) were prepared separately in methanol (1 mg/mL), and, right before the measurements, appropriate dilutions with purified water were used to prepare the sample solutions, applying 0.1% DMSO as the electroosmotic flow (EOF) marker. The samples were injected hydrodynamically at 40 mbar for 3 s. The positive polarity voltage was set to 15 kV, and the capillary was set to 25 °C. The electropherograms were recorded at four wavelengths (200 nm, 210 nm, 215 nm, and 220 nm), and the data were evaluated at 215 nm. In each case, three parallel measurements were performed. The measurements were evaluated using Origin and CEval software (v. 0.6i3).
(§3) In order to determine the complex stability constants that characterized the strength of the complexes, the first step was to determine the effective mobility of the analyte at specific CD concentrations. Triangular peaks caused by electromigration dispersion are often observed in ACE measurements.
(§4) Assuming a 1:1 complexation ratio and that the equilibrium CD concentration is almost equal to the total CD concentration, a relationship between the effective mobility relative to the EOF and the complex stability constant can be described by Function (4) (4) μeff=μA+μACDKstabCD/1+KstabCD where µeff is the effective mobility of the analyte, µA and µACD are the free and complexed analyte mobilities, [CD] is the concentration of the selector, and Kstab is the complex stability constant.
(§5) In order to calculate the exact, apparent, averaged complex stability constant values, viscosity correction and ionic strength correction were used.

[2] = ACE complex stability, HS-β-CD; format: physicochemical; conditions: heptakis-(6-O-sulfo)-β-CD, 30 mM phosphate buffer pH 7.4, 25 °C
Protocol: as §1, §2
as §3, with “measurements. […]” for “measurements.”

[3] = ACE complex stability, HMDiSu-β-CD; format: physicochemical; conditions: heptakis-(2-O-methyl, 3,6-O-disulfo)-β-CD, 30 mM phosphate buffer pH 7.4, 25 °C
Protocol: as §1, §2, §3, §4, §5

[4] = PAMPA-BBB permeability assay; format: in vitro ADME, porcine; conditions: for in vitro BBB permeability: PAMPA-BBB, in words; for Papp at 4 h, 100 µM: pig, PAMPA, read-out: logPe PAMPA-BBB (n = 9) (converted)
Protocol: Kratom extracts were tested for the membrane permeability of their constituents in a PAMPA-BBB assay. […] The blood–brain barrier-specific assay was tested and optimized for natural products by Könczöl et al.; this PAMPA-BBB assay was therefore chosen to determine the BBB permeability of the kratom constituents. […] It should be noted, however, that among the minor components that were not the focus of this study, there may be BBB+ compounds with significant biological activity.
All four isolated kratom alkaloids were also tested in the PAMPA-BBB model. As it can be seen in Table 1, all the investigated compounds had logPe values of between −4.42 and −4.77, which were greater than −6.0; according to Könczöl et al., this value effectively discriminates between compounds with good (BBB+) and poor (BBB−) blood–brain barrier permeability.
PAMPA-BBB was used to determine the effective permeability (Pe) for some extracts and the isolated compounds. Stock solutions (10 mM in DMSO) were diluted with the buffer (pH 7.4) to obtain the donor solutions (composition: 594.0 μL buffer + 6.0 μL stock solution). The buffer was prepared as follows: one PBS (phosphate-buffered saline, pH 7.4; Sigma Aldrich, Budapest, Hungary) tablet dissolved in 200.0 mL distilled water. Donor solutions were filtered through Phenex-RC 15 mm, 0.2 μm syringe filters (Gen-Lab Ltd., Budapest, Hungary).
For PAMPA-BBB, 5 μL of porcine polar brain lipid extract (PBLE) solution (16.0 mg of PBLE + 8.0 mg of cholesterol dissolved in 600.0 μL of n-dodecane) was applied to each well of 96-well polycarbonate-based filter donor plates (top plate) (Multiscreen™-IP, MAIPN4510, pore size 0.45 μm; Merck). The 96-well PTFE acceptor plates (bottom plates) (Multiscreen Acceptor Plate, MSSACCEPTOR; Merck) were filled with 300.0 μL of buffer solution (0.01 M PBS buffer, pH 7.4). The donor plate was placed upon the acceptor plate, and both plates were incubated together at 37 °C for 4 h in a Heidolph Titramax 1000 Vibrating platform shaker (Heidolph, Schwabach, Germany).
After incubation, sandwich plates were separated, and the concentrations of each compound in the starting donor solution and in the acceptor and donor wells were determined in triplicate by the chromatographic peak areas derived from the UHPLC-UV method described above. The UV spectra and chromatograms were recorded at 200–400 nm, and the chromatograms acquired at the UV absorption maxima of each compound were used for data evaluation. The effective permeability and the membrane retention in PAMPA-BBB were calculated by Equations (1) and (2), respectively:(1) Pe=−2.303/A(t−τSS)·(VA·VD/VA+VD)·lg[1−(VA+VD/(1−MR)·VD)×(CA(t)/CD(0))] where Pe is the effective permeability coefficient (cm/s), A is the filter area (0.24 cm^2), VD and VA are the volumes in the donor (0.15 cm^3) and acceptor phases (0.30 cm^3), t is the incubation time (s), τSS is the time (s) to reach the steady state (240 s), CD(t) is the concentration (mol/cm^3) of the compound in the donor phase at time t, CD(0) is the concentration (mol/cm^3) of the compound in the donor phase at time 0, and MR is the estimated membrane retention factor (the estimated mole fraction of solute lost to the membrane), defined as (2) MR=1−CD(t)/CD(0)−VA/VDCA(t)/CD(0)
All experiments were performed in triplicate on three consecutive days (n = 9); caffeine standard was used as the positive control, with rutin as the negative control.

[5] = ACE complex stability, SBE-β-CD DS~4; format: physicochemical; conditions: sulfobutyl-ether-β-CD DS~4, 30 mM phosphate buffer pH 7.4, 25 °C
Protocol: as §1, §2, §3, §4, §5

[6] = ACE complex stability, Succ-β-CD; format: physicochemical; conditions: succinyl-β-CD DS~6, 30 mM phosphate buffer pH 7.4, 25 °C
Protocol: as §1, §2, §3, §4, §5

[7] = ACE complex stability, MePIP-β-CD; format: physicochemical; conditions: mono-6^A-(N-methyl-piperidine)-β-CD, positively charged, 30 mM phosphate buffer pH 7.4, 25 °C
Protocol: as §1, §2, §3, §4, §5

[8] = pH 7.4, 37 °C, 4 h, n = 9, Pe in cm/s

Molecule	complex stability constant (Kstab) with PIP-β-CD [1] [M⁻¹]	complex stability constant (Kstab) with HS-β-CD [2] [M⁻¹]	complex stability constant (Kstab) with HMDiSu-β-CD [3] [M⁻¹]	in vitro BBB permeability [4]	Papp at 4 h, 100 µM [4, 8] [×10⁻⁶ cm/s]	complex stability constant (Kstab) with SBE-β-CD DS~4 [5] [M⁻¹]	complex stability constant (Kstab) with Succ-β-CD [6] [M⁻¹]	complex stability constant (Kstab) with MePIP-β-CD [7] [M⁻¹]	logPe PAMPA-BBB (n = 9) [4, 8]
C=C[C@H]1CN2CCc3c([nH]c4cccc(OC)c34)[C@@H]2C[C@@H]1/C(=C\OC)C(=O)OC [Paynantheine, paynantheine]	< 10	575 ± 35	350 ± 10	excellent	24.5	830 ± 50	360 ± 30	< 10	–
CC[C@@H]1CN2CCc3c([nH]c4cccc(OC)c34)[C@H]2C[C@@H]1/C(=C\OC)C(=O)OC [Speciociliatine, speciociliatine]	< 10	850 ± 30	100 ± 1	excellent	26.3	670 ± 60	470 ± 35	< 10	–
CC[C@H]1CN2CCc3c([nH]c4cccc(OC)c34)[C@@H]2C[C@@H]1/C(=C\OC)C(=O)OC [Speciogynine, speciogynine]	< 10	645 ± 30	530 ± 10	excellent	17	610 ± 60	840 ± 80	< 10	–
mitragynine	< 10	–	230 ± 25	excellent	–	550 ± 35	375 ± 20	< 10	−4.42 ± 0.61
